Test results published in ChEMBL document CHEMBL2034959, “Hesperetin upregulates ABCA1 expression and promotes cholesterol efflux from THP-1 macrophages” (J Nat Prod, 2012).
Active and inactive are the calls of the source. The rule behind the calls is not given here.

Assays:
Type in all cases: cell-based
[1] = test system: THP-1; experiment: Cytotoxicity against human THP1 cells up to 100 uM after 24 hrs by WST8 assay; settings: thp-1, 24 h
[2] = target: T1, Peroxisome proliferator-activated receptor gamma (Homo sapiens) (UniProt P37231); experiment: Induction of PPARgamma enhancer activity in human THP1 cells after 24 hrs by luciferase reporter gene analysis; settings: THP-1
T1 sequence (whole entry): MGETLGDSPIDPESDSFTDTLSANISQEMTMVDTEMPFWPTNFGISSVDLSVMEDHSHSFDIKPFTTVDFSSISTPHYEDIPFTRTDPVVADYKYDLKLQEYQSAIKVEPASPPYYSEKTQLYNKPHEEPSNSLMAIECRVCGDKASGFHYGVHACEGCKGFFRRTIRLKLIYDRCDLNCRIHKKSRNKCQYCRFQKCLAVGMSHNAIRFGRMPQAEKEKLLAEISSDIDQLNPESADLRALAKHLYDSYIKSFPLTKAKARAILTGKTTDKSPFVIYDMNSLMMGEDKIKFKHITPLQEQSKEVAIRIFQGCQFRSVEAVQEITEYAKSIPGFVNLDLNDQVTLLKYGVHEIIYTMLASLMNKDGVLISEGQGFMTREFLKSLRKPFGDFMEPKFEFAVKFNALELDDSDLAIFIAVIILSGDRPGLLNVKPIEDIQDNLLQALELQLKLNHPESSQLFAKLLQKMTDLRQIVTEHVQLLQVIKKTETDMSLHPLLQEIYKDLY

[3] = target: T2, Oxysterols receptor LXR-alpha (Homo sapiens) (UniProt Q13133); experiment: Increase in LXRalpha-mediated ABCA1 protein expression in human THP1 cells at 5 to 15 uM after 48 hrs by Western blotting analysis; settings: THP-1
T2 sequence (whole entry): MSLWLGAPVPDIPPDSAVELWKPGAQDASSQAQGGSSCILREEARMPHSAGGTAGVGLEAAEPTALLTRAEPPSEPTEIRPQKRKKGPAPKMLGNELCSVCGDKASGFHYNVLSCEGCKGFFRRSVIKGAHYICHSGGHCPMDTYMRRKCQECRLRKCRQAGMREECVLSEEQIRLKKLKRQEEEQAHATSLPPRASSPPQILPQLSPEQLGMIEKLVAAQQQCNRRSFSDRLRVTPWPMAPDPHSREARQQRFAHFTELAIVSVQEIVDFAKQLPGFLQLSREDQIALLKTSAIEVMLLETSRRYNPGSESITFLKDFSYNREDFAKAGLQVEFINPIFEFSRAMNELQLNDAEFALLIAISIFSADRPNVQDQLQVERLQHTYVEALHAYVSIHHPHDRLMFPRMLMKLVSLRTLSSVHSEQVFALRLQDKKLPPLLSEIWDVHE

[4] = target: T2, Oxysterols receptor LXR-alpha (Homo sapiens); experiment: Increase in LXRalpha-mediated ABCA1 mRNA expression in human THP1 cells at 5 to 15 uM after 24 hrs by RT-PCR analysis; settings: THP-1
[5] = target: T1, Peroxisome proliferator-activated receptor gamma (Homo sapiens); experiment: Induction of PPARgamma-mediated ABCA1 promoter activity in human THP1 cells after 24 hrs by luciferase reporter gene analysis; settings: THP-1
[6] = target: T2, Oxysterols receptor LXR-alpha (Homo sapiens); experiment: Induction of LXRalpha enhancer activity in human THP1 cells after 24 hrs by luciferase reporter gene analysis; settings: THP-1
[7] = target: T2, Oxysterols receptor LXR-alpha (Homo sapiens); experiment: Induction of LXRalpha-mediated ABCA1 promoter activity in human THP1 cells after 24 hrs by luciferase reporter gene analysis; settings: THP-1

**Q.** What does the source list for `COc1ccc([C@@H]2CC(=O)c3c(O)cc(O)cc3O2)cc1O` [HESPERETIN]?
**A.** Activity [1]: Non-toxic; Activity [2]: Dose-dependent effect; Activity [3]: Active; Activity [4]: Active; Activity [5]: Active; Activity [6]: Dose-dependent effect; Activity [7]: Active
